We go through five compounds from US4094980A, “N-[1-(3',4'-methylenedioxy-phenyl)-propyl-(2)]-N'-phenyl-piperazines and salts thereof” (Boehringer Ingelheim GmbH, priority 1974, dated 1978).

The first experiment concerns adult laboratory mice of the NMRI-strain. Put plainly: CNS-Depression: Sliding test (loss of holding reflex on inclined glass plate). The experiment is classed as in vivo. As to conditions: po, mouse; dose at which 50% of animals begin to slide off the glass plate; Probit-method. How it is done:
A statistically significant number of adult laboratory mice of the NMRI-strain are used as test animals. The test compound is administered perorally as a suspension in tylose by means of an esophageal sound, and the animal is placed on an inclined plate of glass. If the administered dose of the test compound has a CHS-depressing effect upon the animal, the treated mouse loses its normal holding reflex and slides off the plate. The test is repeated at varying dosage levels, and a median effective dose (ED50) is determined by the so-called Probit-method, i.e. the dose at which 50% of the test animals begin to slide off the glass plate.
Regarding `CC(Cc1ccc2c(c1)OCO2)N1CCN(c2ccc(Cl)cc2Cl)CC1` (stereo not drawn) [A, n-[1-(3,4-methylenedioxy-phenyl)-propyl-(2)]-N'-(2,4-dichloro-phenyl)-piperazine], the ED50 (usually the midpoint of the dose-response relation) was 190 mg/kg.
Same read-out and setting: to `COc1ccc(N2CCN(C(C)Cc3ccc4c(c3)OCO4)CC2)c(C)c1` (stereo not drawn) [B, n-[1-(3,4-methylenedioxy-phenyl)-propyl(2)]-N'-(2-methyl-4-methoxy-phenyl)-piperazine] belongs 960 mg/kg; to `CC(Cc1ccc2c(c1)OCO2)N1CCN(c2ccccc2Cl)CC1` (stereo not drawn) [Compound C, n-[1-(3,4-methylenedioxy-phenyl)-propyl(2)]-N'-(2-chlorophenyl)-piperazine], 2.2 mg/kg; to `COc1ccccc1N1CCN(C(C)Cc2ccc3c(c2)OCO3)CC1` (stereo not drawn) [Compound D], above 14 mg/kg.
The compound `Cc1cccc(C)c1N1CCN(C(C)Cc2ccc3c(c2)OCO3)CC1` (stereo not drawn) [E, n-[1-(3,4-methylenedioxy-phenyl)-propyl(2)]-N'-(2,6-dimethyl-phenyl)-piperazine] showed an ED50 of 25 mg/kg.

A further experiment has the same test system. Nature of the experiment: CNS-Depression: Ataxia (atactic walking). The experiment is classed as in vivo. The note with it: po, mouse; dose at which ataxia occurs in 50% of the animals; Probit-method. As for the experimental part:
A statistically significant number of adult laboratory mice of the NMRI-strain are used as the test animals. The test compound is administered perorally as a suspension in tylose by means of an esophageal sound, and the treated animal is observed for evidence of atactic (uncoordinated) walking. The test is repeated at varying dosage levels, and a median effective dose (ED50) is determined by the Probit-method, i.e. the dose at which ataxia occurs in 50% of the animals.
On to `CC(Cc1ccc2c(c1)OCO2)N1CCN(c2ccc(Cl)cc2Cl)CC1` (stereo not drawn) [A, n-[1-(3,4-methylenedioxy-phenyl)-propyl-(2)]-N'-(2,4-dichloro-phenyl)-piperazine], for which the ED50 was determined as 160 mg/kg.
Still for that read-out and setting: the value for `COc1ccc(N2CCN(C(C)Cc3ccc4c(c3)OCO4)CC2)c(C)c1` (stereo not drawn) [B, n-[1-(3,4-methylenedioxy-phenyl)-propyl(2)]-N'-(2-methyl-4-methoxy-phenyl)-piperazine] was 120 mg/kg; that for `CC(Cc1ccc2c(c1)OCO2)N1CCN(c2ccccc2Cl)CC1` (stereo not drawn) [Compound C, n-[1-(3,4-methylenedioxy-phenyl)-propyl(2)]-N'-(2-chlorophenyl)-piperazine] was 2.2 mg/kg; that for `COc1ccccc1N1CCN(C(C)Cc2ccc3c(c2)OCO3)CC1` (stereo not drawn) [Compound D] was 39 mg/kg.
Same read-out and setting: the value for `Cc1cccc(C)c1N1CCN(C(C)Cc2ccc3c(c2)OCO3)CC1` (stereo not drawn) [E, n-[1-(3,4-methylenedioxy-phenyl)-propyl(2)]-N'-(2,6-dimethyl-phenyl)-piperazine] was 105 mg/kg.

The test system of a further experiment is total serum cholesterol. Put plainly: Reduction of serum cholesterol level (total serum cholesterol, Liebermann-Burchard auto-analyzer). The experiment is classed as in vivo, male laboratory rats. As to conditions: rat; day 0 (prior to the beginning of the test, baseline); group of 25 mgm/kg once daily per os. How it is done: 1. Reduction of serum cholesterol level
85 male laboratory rats having a body weight of about 250 gm. The animals were individually kept in Makrolon-cages under controlled conditions. Food and water were freely accessible to the animals at all times, except on the day on which the blood samples were taken.
The test compounds were administered once daily per os by means of an esophageal sound.
Determination of total cholesterol in serum (mgm/100 ml) with the auto-analyzer according to Liebermann-Burchard (see J. Levine et al, Technicon-Symposium, 1967, Vol. 1, pg. 25).
The total serum cholesterol was determined in all test animals prior to the beginning of the test (day O), as well as on the 8th, 14th and 21st day. The blood sample was taken from the retrobulbar venous plexus. The animals were fasted for about 16 hours prior to determination of the serum cholesterol.
As to `CC(Cc1ccc2c(c1)OCO2)N1CCN(c2ccc(Cl)cc2Cl)CC1` (stereo not drawn) [A, n-[1-(3,4-methylenedioxy-phenyl)-propyl-(2)]-N'-(2,4-dichloro-phenyl)-piperazine], the “Average value of total serum cholesterol” value stood at 96.7 mgm/100 ml.
The same measure, in the same setting: to `COc1ccc(N2CCN(C(C)Cc3ccc4c(c3)OCO4)CC2)c(C)c1` (stereo not drawn) [B, n-[1-(3,4-methylenedioxy-phenyl)-propyl(2)]-N'-(2-methyl-4-methoxy-phenyl)-piperazine] belongs 97.9 mgm/100 ml; to `CC(Cc1ccc2c(c1)OCO2)N1CCN(c2ccccc2Cl)CC1` (stereo not drawn) [Compound C, n-[1-(3,4-methylenedioxy-phenyl)-propyl(2)]-N'-(2-chlorophenyl)-piperazine], 38.3 mgm/100 ml.

The experiment is the same for the next values; noted with them: rat; day 0 (prior to the beginning of the test, baseline); group of 50 mgm/kg once daily per os.
`COc1ccccc1N1CCN(C(C)Cc2ccc3c(c2)OCO3)CC1` (stereo not drawn) [Compound D]: the “Average value of total serum cholesterol” value was found to be 112.9 mgm/100 ml.
The same measure, in the same setting: the value for `Cc1cccc(C)c1N1CCN(C(C)Cc2ccc3c(c2)OCO3)CC1` (stereo not drawn) [E, n-[1-(3,4-methylenedioxy-phenyl)-propyl(2)]-N'-(2,6-dimethyl-phenyl)-piperazine] was 107.3 mgm/100 ml.

Still in this experiment, the particulars now being: rat; day 8; 25 mgm/kg once daily per os.
On to `CC(Cc1ccc2c(c1)OCO2)N1CCN(c2ccc(Cl)cc2Cl)CC1` (stereo not drawn) [A, n-[1-(3,4-methylenedioxy-phenyl)-propyl-(2)]-N'-(2,4-dichloro-phenyl)-piperazine], for which the “Average value of total serum cholesterol” value is on record as 27.5 mgm/100 ml.
For the compound `COc1ccc(N2CCN(C(C)Cc3ccc4c(c3)OCO4)CC2)c(C)c1` (stereo not drawn) [B, n-[1-(3,4-methylenedioxy-phenyl)-propyl(2)]-N'-(2-methyl-4-methoxy-phenyl)-piperazine], the “Average value of total serum cholesterol” value was found to be 35.2 mgm/100 ml.
Regarding `CC(Cc1ccc2c(c1)OCO2)N1CCN(c2ccccc2Cl)CC1` (stereo not drawn) [Compound C, n-[1-(3,4-methylenedioxy-phenyl)-propyl(2)]-N'-(2-chlorophenyl)-piperazine], the “Average value of total serum cholesterol” value was found to be 31.7 mgm/100 ml.

Still in this experiment, the particulars now being: rat; day 8; 50 mgm/kg once daily per os.
Consider `COc1ccccc1N1CCN(C(C)Cc2ccc3c(c2)OCO3)CC1` (stereo not drawn) [Compound D], for which the “Average value of total serum cholesterol” value was determined as 87.3 mgm/100 ml.
For `Cc1cccc(C)c1N1CCN(C(C)Cc2ccc3c(c2)OCO3)CC1` (stereo not drawn) [E, n-[1-(3,4-methylenedioxy-phenyl)-propyl(2)]-N'-(2,6-dimethyl-phenyl)-piperazine], the “Average value of total serum cholesterol” value stood at 71.2 mgm/100 ml.

Still in this experiment, the particulars now being: rat; day 14; 25 mgm/kg once daily per os.
`CC(Cc1ccc2c(c1)OCO2)N1CCN(c2ccc(Cl)cc2Cl)CC1` (stereo not drawn) [A, n-[1-(3,4-methylenedioxy-phenyl)-propyl-(2)]-N'-(2,4-dichloro-phenyl)-piperazine]: the “Average value of total serum cholesterol” value amounted to 12.5 mgm/100 ml.
On the same count and under the same terms, to `COc1ccc(N2CCN(C(C)Cc3ccc4c(c3)OCO4)CC2)c(C)c1` (stereo not drawn) [B, n-[1-(3,4-methylenedioxy-phenyl)-propyl(2)]-N'-(2-methyl-4-methoxy-phenyl)-piperazine] belongs 21.3 mgm/100 ml; to `CC(Cc1ccc2c(c1)OCO2)N1CCN(c2ccccc2Cl)CC1` (stereo not drawn) [Compound C, n-[1-(3,4-methylenedioxy-phenyl)-propyl(2)]-N'-(2-chlorophenyl)-piperazine], 24.3 mgm/100 ml.

The same experiment, now with this note: rat; day 14; 50 mgm/kg once daily per os.
In the case of `COc1ccccc1N1CCN(C(C)Cc2ccc3c(c2)OCO3)CC1` (stereo not drawn) [Compound D], the “Average value of total serum cholesterol” value is on record as 86.3 mgm/100 ml.
Still for that read-out and setting: the value for `Cc1cccc(C)c1N1CCN(C(C)Cc2ccc3c(c2)OCO3)CC1` (stereo not drawn) [E, n-[1-(3,4-methylenedioxy-phenyl)-propyl(2)]-N'-(2,6-dimethyl-phenyl)-piperazine] was 61.7 mgm/100 ml.

Still in this experiment, the particulars now being: rat; day 21; 25 mgm/kg once daily per os.
As for `CC(Cc1ccc2c(c1)OCO2)N1CCN(c2ccc(Cl)cc2Cl)CC1` (stereo not drawn) [A, n-[1-(3,4-methylenedioxy-phenyl)-propyl-(2)]-N'-(2,4-dichloro-phenyl)-piperazine], the “Average value of total serum cholesterol” value was 13.0 mgm/100 ml.
With `COc1ccc(N2CCN(C(C)Cc3ccc4c(c3)OCO4)CC2)c(C)c1` (stereo not drawn) [B, n-[1-(3,4-methylenedioxy-phenyl)-propyl(2)]-N'-(2-methyl-4-methoxy-phenyl)-piperazine], the “Average value of total serum cholesterol” value is reported as 21.2 mgm/100 ml.
Still for that read-out and setting: to `CC(Cc1ccc2c(c1)OCO2)N1CCN(c2ccccc2Cl)CC1` (stereo not drawn) [Compound C, n-[1-(3,4-methylenedioxy-phenyl)-propyl(2)]-N'-(2-chlorophenyl)-piperazine] belongs 26.2 mgm/100 ml.

Still in this experiment, the particulars now being: rat; day 21; 50 mgm/kg once daily per os.
As to `COc1ccccc1N1CCN(C(C)Cc2ccc3c(c2)OCO3)CC1` (stereo not drawn) [Compound D], the “Average value of total serum cholesterol” value turned out to be 82.1 mgm/100 ml.
The same measure, in the same setting: the value for `Cc1cccc(C)c1N1CCN(C(C)Cc2ccc3c(c2)OCO3)CC1` (stereo not drawn) [E, n-[1-(3,4-methylenedioxy-phenyl)-propyl(2)]-N'-(2,6-dimethyl-phenyl)-piperazine] was 63.5 mgm/100 ml.
